Measurements reported in the supplement of paper PMC10307832.

Columns and labels:
Assay in all cases: relative viability (nuclei count vs DMSO), 5 days (fraction); higher = more cells survive
[1] = compound: COc1cc2c(Oc3ccc4[nH]c(C)cc4c3F)ncnc2cc1OCCCN1CCCC1 [Cediranib] + C[C@]1(O)C[C@@H](c2nc(-c3ccc4ccc(-c5ccccc5)nc4c3)c3c(N)nccn32)C1 [Linsitinib] (partner 1 µM)
Summary of the method: (§1)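 Each reported value is a median over duplicate plates. It expresses relative viability: treated-well nuclei count divided by vehicle-well nuclei count. Lung cancer cell lines in 1536-well plates were dosed by pin tool a day after seeding, alone with one drug or with a fixed anchor-drug dose plus five library-drug doses (not always all listed) in √10 steps, and nuclei were counted after 5 days.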

[2] = compound: Nc1ncn([C@H]2C[C@H](O)[C@@H](CO)O2)c(=O)n1 [Decitabine] + O=C(c1cc(Cc2n[nH]c(=O)c3ccccc23)ccc1F)N1CCN(C(=O)C2CC2)CC1 [Olaparib] (partner 8 µM)
Summary of the method: as §1

[3] = compound: O=C(C[C@H]1NCCC[C@@H]1O)Cn1cnc2cc(Br)c(Cl)cc2c1=O (racemic) [Halofuginone] + COc1cccc2cc(-c3nc([C@H]4CC[C@H](C(=O)O)CC4)n4ncnc(N)c34)[nH]c12 [OSI-027] (partner 0.5 µM)
Summary of the method: as §1

[4] = compound: COc1cc2c(Oc3ccc4[nH]c(C)cc4c3F)ncnc2cc1OCCCN1CCCC1 [Cediranib] + CC1(C)CCC(c2ccc(Cl)cc2)=C(CN2CCN(c3ccc(C(=O)NS(=O)(=O)c4ccc(N[C@H](CCN5CCOCC5)CSc5ccccc5)c(S(=O)(=O)C(F)(F)F)c4)cc3)CC2)C1 [Navitoclax] (partner 0.5 µM)
Summary of the method: as §1

Cell Line	relative viability ([1]; first compound 0.04 µM)	relative viability ([1]; first compound 0.1265 µM)	relative viability ([1]; first compound 0.4 µM)	relative viability ([1]; first compound 1.265 µM)	relative viability ([1]; first compound 4 µM)	relative viability ([2]; first compound 0.04 µM)	relative viability ([2]; first compound 0.1265 µM)	relative viability ([2]; first compound 0.4 µM)	relative viability ([2]; first compound 1.265 µM)	relative viability ([2]; first compound 4 µM)	relative viability ([3]; first compound 0.001 µM)	relative viability ([3]; first compound 0.003162 µM)	relative viability ([3]; first compound 0.01 µM)	relative viability ([3]; first compound 0.03162 µM)	relative viability ([3]; first compound 0.1 µM)	relative viability ([4]; first compound 0.04 µM)	relative viability ([4]; first compound 0.1265 µM)	relative viability ([4]; first compound 0.4 µM)	relative viability ([4]; first compound 1.265 µM)	relative viability ([4]; first compound 4 µM)
NCI-H358	0.919	0.745	0.681	0.717	0.899	0.27	0.182	0.165	0.1	0.106	0.972	0.836	0.664	0.267	0.107					
SW 900						0.563	0.365	0.329	0.228	0.208	0.68	0.628	0.518	0.494	0.293					
NCI-H2087	0.995	1.03	0.921	0.843	0.959	0.187	0.236	0.217	0.145	0.14	0.439	0.593	0.528	0.484	0.424	1.07	0.914	1.01	0.984	1.07
COR-L 105		0.909	0.946	0.972	0.938	0.609	0.546	0.524	0.505	0.403	0.667	0.637	0.603	0.656	0.466		0.842	0.733	0.756	0.693
LCLC-97TM1	0.192		0.175	0.144	0.28	0.0932	0.124	0.0895	0.0603	0.335	0.674	0.612	0.597	0.566	0.358	0.316		0.448	0.544	0.527
NCI-H650	0.792	0.681	0.807	0.706	0.964	0.196	0.198	0.203	0.123	0.152	0.531	0.59	0.506	0.492	0.533					
NCI-H522						0.544	0.564	0.544	0.548	0.47	0.734	0.707	0.721	0.689	0.605					
ABC-1	0.656	0.97	0.799		0.786		0.616	0.77	0.473	0.573	0.413	0.454	0.504	0.601	0.417					
NCI-H1563	1.27	1.32	1.22	1.3	1.22						0.859	0.735	0.837	0.612	0.527					
NCI-H1703	0.458	0.452	0.372	0.26	0.183	0.21	0.21	0.287	0.145	0.166						1.11	0.916	0.287	0.237	0.238
NCI-H661	0.509	0.733	0.596	0.527	0.743	0.56	0.459	0.409	0.345	0.338	0.776	0.685	0.679	0.611	0.499					
LCLC-103H	1.19	1.12	1.04	1.02	1.18	0.688	0.69	0.498	0.491	0.742	0.474	0.447	0.446	0.428	0.451					
NCI-H2170						0.271	0.201	0.216	0.137	0.134	0.699	0.714	0.738	0.651	0.659	0.691	0.671	0.567	0.61	0.713
NCI-H1648						0.679	0.516	0.484	0.424	0.301	0.247	0.217	0.242	0.275	0.262					
EBC-1	1.14	1.05	0.882	0.609	0.802	0.318	0.197	0.187	0.157	0.18						0.388	0.441	0.37	0.52	0.455
NCI-H1650						0.509	0.367	0.259	0.2	0.207	0.653	0.634	0.639	0.774	0.141	1.19	1.29	1.08	1.12	0.751
NCI-H1299	1	0.977	0.96	0.988	0.947	0.963	0.962	0.884	0.655	0.578						1.07	1.02	1.03	1.07	1.08
A549	0.723	0.644	0.543	0.633	0.471	0.15	0.112	0.049	0.0246	0.0404						1.29	1.34	1.23	1.25	1.24
IA-LM	0.629	0.772	0.586	0.436	0.634	0.288	0.197	0.139	0.129	0.129						0.875	0.921	0.652	0.672	1.09
